The series is described as follows: gradient 5% acetonitrile 3 min, to 50% in 2 min, to 85% in 15 min, held 3 min, 100 µL/min. Conditions: column: Zorbax Extend-C18 2.1 x 50 mm; eluents: water / acetonitrile, 0.1% formic acid. Put shortly:
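Using water and acetonitrile that each contained 0.1% formic acid, mixtures of ~100 pure standards were separated at 100 μL/min on a Zorbax Extend-C18 column (2.1 × 50 mm, 1.8 μm). The HPLC fed a quadrupole time-of-flight mass spectrometer working in positive and negative ionization mode, with dead and dwell volumes of 40 μL and 900 μL. Data were acquired over 3 months. Retention time was read from computationally picked adduct peaks after manual inspection of each.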
`CCc1cccc(NS(=O)(=O)c2ccc(-c3c(C)noc3C)cc2)c1`: the RP-LC retention time is 985 s.
To `O=C(NCCc1ccccc1)N1CCCC1c1nc(-c2cccc(Cl)c2)no1` (stereo not drawn) belongs 1050 s.
Consider `COc1cc(OC)cc(-c2nc(-c3cn(-c4ccc(F)cc4)nn3)no2)c1`, for which the RP-LC retention time was 809 s.
`CCOC(=O)c1[nH]c(C)c(CCC(=O)N2CCC(C(=O)NCCOC)CC2)c1C` registered an RP-LC retention time of 628 s.
`CC1CCN(CCNC(=O)C2CCN(S(=O)(=O)c3ccc4c(c3)sc(=O)n4C)CC2)CC1`: the RP-LC retention time was determined as 622 s.
To `CCc1ccc(-c2cc3c(=O)n(Cc4noc(CN5CCCC(C)C5)n4)ccn3n2)cc1` (stereo not drawn) belongs 726 s; to `COc1cccc2c1C(=O)c1c(O)c3c(c(O)c1C2=O)C[C@@](O)(/C(C)=N\O)C[C@@H]3OC1CC(N)C(O)C(C)O1` (stereo partly drawn), 681 s; to `COC(=O)c1ccc(NC(=O)N2CCOc3ccc(C)cc32)cc1`, 679 s.
To `O=C(NCc1ccc(F)cc1F)c1c(O)c2cccnc2n(Cc2ccccc2)c1=O` belongs 1400 s; to `Cc1ccc(Oc2nccnc2N2CCCC(C(=O)NC(C)c3ccc(C)c(C)c3)C2)cc1` (stereo not drawn), 1150 s; to `CCc1cccc(C)c1NC(=O)C1CCN(S(C)(=O)=O)c2cc(C)ccc2O1` (stereo not drawn), 671 s.
To `CCN1C(=O)COc2ccc(-c3noc(-c4cc(OC)c(OC)c(OC)c4)n3)cc21` belongs 1060 s; to `CC(C)N1C(=O)C2(CCCCC2)C1C(=O)N1CCCCC1` (stereo not drawn), 722 s.
Take `COc1cccc(NC(=O)NCCC2CCN(S(=O)(=O)c3ccccc3)CC2)c1`: the RP-LC retention time came out at 870 s.
The figure for `O=C(NC1CC1)c1ccc(OCC2CCN(C(=O)C3(c4ccccc4)CC3)CC2)cc1` is 859 s.
To `O=C(NCc1cccc(F)c1)c1ccc(-c2ccsc2)nc1` belongs 871 s.
To `Ic1ccccc1CNC1C2CCN(CC2)C1C(c1ccccc1)c1ccccc1` (stereo not drawn) belongs 982 s.
Regarding `Cn1cnnc1SCCNC(=O)CNC(=O)c1ccc(=O)[nH]c1`, the RP-LC retention time is 494 s.
The compound `COc1cc(NC(=O)Cn2ccc3ccc(-c4nnc(C)o4)cc32)cc(OC)c1OC` showed an RP-LC retention time of 726 s.
`Cc1cc(C)cc(Oc2nccn3c(=O)n(CC(=O)Nc4cc(C)ccc4C)nc23)c1` displayed an RP-LC retention time of 974 s.
`Cc1nc(-c2ccc(Cl)cc2)sc1CCNC(=O)c1ccco1` came in with an RP-LC retention time of 946 s.
Regarding `Cc1noc(C)c1CC(=O)N1CCCn2ccnc2C1C(C)C` (stereo not drawn), the RP-LC retention time came out at 632 s.
Compound `CCCNC(=O)C1CCCN(c2nc3ncn(CC(=O)Nc4c(C)cc(C)cc4C)c(=O)c3s2)C1` (stereo not drawn) displayed an RP-LC retention time of 728 s.
With `COc1cc(Cl)ccc1C(=O)N1CCC(COc2ccc(C(=O)NC(C)C)cc2)CC1`, the RP-LC retention time was determined as 801 s.
The figure for `N#Cc1ccccc1CN1CC[C@@H]2CN(Cc3cccnc3)[C@@H]2C1` is 556 s; for `CCCS(=O)(=O)c1nc2ccc(NS(=O)(=O)c3ccc(C(C)(C)C)cc3)cc2s1` it is 1110 s; for `COc1ccc(NC(=O)N2[C@H]3CC[C@@H]2c2cnc(C)nc2C3)c(C)c1` it is 645 s.
With `COc1ccc(-c2nnc(-c3ccc(OC)c(S(=O)(=O)N4CCCC4)c3)o2)cc1OC`, the RP-LC retention time was found to be 844 s.
For `O=C(Cc1cccs1)Nc1nnc(Cc2ccc(F)cc2)o1`, the RP-LC retention time amounted to 707 s.
In the case of `Cc1cccc(C(=O)N2CCc3cc(CNS(=O)(=O)c4ccc5c(c4)CC(=O)N5C)ccc32)c1`, the RP-LC retention time was 836 s.
For `CNC(=O)CN1C(=O)C2CCCCN2c2ccc(S(=O)(=O)N(C)C)cc21` (stereo not drawn), the RP-LC retention time is 690 s.
Compound `O=C(Nc1ncnc2sccc12)c1ccc([N+](=O)[O-])o1` displayed an RP-LC retention time of 664 s.
With `COc1ccc(C2(C(=O)N3CCC(Oc4ccc(-c5noc(C)n5)cc4)C3)CC2)cc1` (stereo not drawn), the RP-LC retention time was determined as 913 s.
The figure for `CCN1CCN(C(=O)CN2C(=O)COc3ccc(C(=O)N4CCCC4)cc32)CC1` is 571 s.
As to `CC(C)NC(=O)N1CCCC(c2cccc(C(=O)NCCN3CCCCC3)c2)C1` (stereo not drawn), the RP-LC retention time was found to be 608 s.
Compound `Cc1cccc2nnc(N3CCCC(C(=O)Nc4ccccc4)C3)n12` (stereo not drawn) came in with an RP-LC retention time of 680 s.
The figure for `CCOc1ccc(C(=O)N2CCC3(CC2)NCc2ccccc2-n2ccnc23)cc1` is 619 s.
In the case of `CCCn1cc(S(=O)(=O)Nc2ccccc2)c2cccnc21`, the RP-LC retention time came to 838 s.
`CSc1ccc(-c2nc3ncccn3c2Nc2ccc(C)c(C)c2)cc1`: the RP-LC retention time amounted to 889 s.
The figure for `CNC(=O)C1CCN(C(=O)Nc2ccc(NC(=O)Nc3ccc(C)c(C)c3)cc2)CC1` is 700 s.
On to `Cc1cccc(-c2noc(Cn3ncn4nc(-c5cccs5)cc4c3=O)n2)c1`, for which the RP-LC retention time came out at 1100 s.
`CCc1ccccc1S(=O)(=O)N1CCC(C(=O)NCc2csc(-c3ccccc3)n2)CC1`: the RP-LC retention time is 999 s.
The figure for `O=C1NCCCCCCN(C(=O)c2ccsc2)[C@H]2CCC[C@@H]12` is 733 s; for `CCn1c(=O)sc2cc(S(=O)(=O)N3CCC(C(=O)NCc4cccc(OC)c4)CC3)ccc21` it is 1000 s; for `CSc1ccccc1CN1CCC(CNC(=O)c2ccccc2Cl)CC1` it is 722 s.
On to `O=C(CN1C(=O)C2CCCCN2c2ccc(C(=O)N3CCCC3)cc21)NCCc1ccco1` (stereo not drawn), for which the RP-LC retention time is 664 s.
To `CC(C)CC(=O)N1CCCC(c2nc(CCNC(=O)C3CCC3)cs2)C1` (stereo not drawn) belongs 734 s; to `COC[C@@H]1CN(Cc2cccc(OC)c2OC)C[C@H]1c1ccccn1`, 656 s.
`O=C(CCc1cc2ccccc2[nH]c1=O)NCCN1CCc2ccccc2C1` came in with an RP-LC retention time of 607 s.
`CCn1cc(C(=O)NCc2ccccc2C)c2cccnc21` returned an RP-LC retention time of 809 s.
In the case of `COc1cc(NC(=O)c2cn(-c3cc(N(C)C)ncn3)cn2)cc(OC)c1`, the RP-LC retention time turned out to be 809 s.
`COc1ccc(-c2nc(-c3ccc4nnn(C(C)C)c4c3)no2)cc1OC` had an RP-LC retention time of 1020 s.
To `C=CCN1C(=O)CC(Nc2ccc(CC)cc2)C1=O` (stereo not drawn) belongs 846 s; to `Cn1c(CN2CCN(C(=O)NCc3ccco3)CC2)nc2cc(C(=O)N3CCCC3)ccc21`, 590 s; to `CN(CCCNC(=O)C1CCCN(c2ncc(-c3ccccc3)cn2)C1)c1ccccc1` (stereo not drawn), 826 s.
`CCc1noc(NC(C)=O)c1-c1ccc(OC)c(S(=O)(=O)NCc2cccc(OC)c2)c1` showed an RP-LC retention time of 786 s.
Take `CC(C)NC(=O)CCCN1C(=O)c2ccccc2Sc2ncccc21`: the RP-LC retention time was determined as 674 s.
In turn, `Cc1ccc(CC(=O)Nc2ccc3nc(N4CCN(CC(=O)N(C)C)CC4)cc(C(=O)O)c3c2)cc1` showed an RP-LC retention time of 604 s.
Turning to `O=C(NCc1ccco1)C1CCN(S(=O)(=O)c2cc(-c3noc(C4CCC4)n3)cs2)CC1`, the RP-LC retention time is 917 s.
Regarding `O=C(NCCc1nc2cccnc2n1Cc1ccccc1)Nc1ccc2c(c1)OCO2`, the RP-LC retention time worked out at 726 s.
Take `O=C(c1ccc2c(c1)OCO2)N1CCC2(CC1)N(c1ccccc1)C(=O)CS2(=O)=O`: the RP-LC retention time is 685 s.
`Cc1cc(-c2ccc3c(c2)CCN3C(=O)C2CCCO2)on1` (stereo not drawn): the RP-LC retention time was 767 s.
Consider `COCCCNC(=O)N1CCN(Cc2nc3cccnc3n2-c2cc(C)cc(C)c2)CC1`, for which the RP-LC retention time came out at 650 s.
Compound `COc1cccc(-c2noc(Cn3nc(-c4ccccc4)ccc3=O)n2)c1` gave an RP-LC retention time of 998 s.
For the compound `CCOc1ccccc1N1CCN(S(=O)(=O)c2nn(CC)cc2C(=O)NCCOC)CC1`, the RP-LC retention time was 910 s.
Take `CCc1ccc(S(=O)(=O)N2CCC(N3CCN(Cc4ccccc4)C(=O)C3=O)CC2)cc1`: the RP-LC retention time amounted to 859 s.
To `COc1ccc(-c2nc3cc(C)ccn3c2NC(=O)CC(C)(C)C)cc1` belongs 681 s.
To `CN(C)CC(=O)N1CCC(Oc2nccnc2N2CCOCC2)C1` (stereo not drawn) belongs 561 s; to `CC(C)NC(=O)Cc1cccn1-c1cccc(Cl)c1`, 870 s; to `CCc1sc(NC(=O)CCS(=O)(=O)Cc2ccccc2)nc1-c1ccccc1`, 948 s.
The figure for `O=C(CN1C(=O)C2CCCCN2c2ccc(C(=O)N3CCCC3)cc21)Nc1ccncc1` (stereo not drawn) is 622 s; for `Cc1cc(C(=O)NCCc2ccc(Cl)cc2)c2c(=O)n(C)c(=O)n(C)c2n1` it is 835 s.
With `COc1ccc(NC(=O)N2[C@H]3CC[C@@H]2c2cnc(C)nc2C3)cc1OC`, the RP-LC retention time was determined as 611 s.
In the case of `Cc1ccc(-n2ncc3c(NCCN(C)C)ncnc32)cc1C`, the RP-LC retention time amounted to 648 s.
On to `O=C(Cn1cccc1-c1nnc(-c2ccccc2)o1)NCCc1ccccc1`, for which the RP-LC retention time was found to be 950 s.
In turn, `Cc1ccc(C)c(CN2CCn3c(nn(CC4CC4)c3=O)C2)c1` showed an RP-LC retention time of 879 s.
To `O=C(Cn1ccn2nc(-c3ccccc3)c(CO)c2c1=O)Nc1ccccc1Cl` belongs 808 s; to `Cc1ccc(C)c(C(=O)Nc2ccc3c(c2)Sc2ncccc2C(=O)N3C)c1`, 888 s.

Source of the values: the METLIN SMRT retention time set (Domingo-Almenara et al. 2019).
